Patent US4062862A, “5-Benzyl-2-oxazolidone derivatives and a process for producing the same” (Nippon Chemiphar Co., Ltd., priority 1975, dated 1977)

Experiments:
[1] = test system: acetic acid-induced writhing syndrome in mice; test: Analgetic effect, Acetic Acid-Induced Writhing Method; assay type: in vivo, dd Male mice; conditions: 100 mg/kg oral, 30 min before acetic acid; for Writhing syndrome (number within 20 minutes): control 52.1 ± 2.7; for Inhibitory per cent (writhing): vs control
Description: dd Male mice weighing 18 to 22g, one group consisting of 10 animals, were given the intraperitoneal injection of 0.6% acetic acid in a dose of 0.1ml/10g-body weight. The number of writhing syndromes occurring within 20 minutes after injection was observed. Animals were orally given the test compounds suspended in 0.2% carboxymethylcellulose solution 30 minutes before the injection of acetic acid in a dose of 100mg/kg-body weight. Inhibitory percent was estimated in comparison with a control given the 0.2% carboxymethycellulose solution only. Aminopyrine was used as active placebo.

pain threshold in mice = test: Analgetic effect, Pressure Test (pain threshold, tail pressure); assay type: in vivo, dd Male mice; conditions: 100 mg/kg oral; for Pain threshold, Mean ± SE, 30 min / Pain threshold, Mean ± SE, 60 min / Pain threshold, Mean ± SE, 90 min / Pain threshold, Mean ± SE, 120 min: *p <0.05, **p <0.01, ***p <0.001
Description: dd Male mice weighing 18 to 22 g (pain threshold ranging within 30 to 50 mmHg), one group consisting of 10 animals, were given orally the test compounds suspended in 0.2% carboxymethylcellulose solution in a dose of 100mg/kg-body weight. Pain threshold were measured at 30, 60, 90 and 120 minutes after the administration of the test compounds while pain reaction occurring by application of pressure on tails of animals was referred to as indication. Aminopyrine was used as active placebo.

mice [2] = test: Muscular relaxing effect, Rotarod Method (R.R), oral, mice; assay type: in vivo, dd Male mice; conditions: Mus musculus; Table 1; oral; mice; maximum response 15-180 min; Litchfield Wilcoxon
Description: (§1) dd Male mice weighing 18 to 22 g, one group consisting of 10 animals, were orally given the compounds (I) to (V) as indicated below suspended in 0.2% carboxymethylcellulose solution in a dose of 0.25ml/10g-body weight. Mephenesin was used as active placebo.
Mice were placed on Rotar Load (made by Natsume Seisakusho Co., Ltd.) having a diameter of 3 cm rotating at a speed of 10 rpm and falling (occurring within 3 minutes) was observed.

mice [3] = test: Muscular relaxing effect, Traction Test (T.T), oral, mice; assay type: in vivo, dd Male mice; conditions: Mus musculus; Table 1; oral; mice; maximum response 15-180 min; Litchfield Wilcoxon
Description: as §1

mice [4] = test: Muscular relaxing effect, Inclined Plane Test (I.P), oral, mice; assay type: in vivo, dd Male mice; conditions: Mus musculus; Table 1; oral; mice; maximum response 15-180 min; Litchfield Wilcoxon
Description: as §1
Mice were placed on veneer inclined at an angle of 30° and on wire-netting inclined at an angle of 60° of which one division is 5 mm square, and mice sliding down were observed as positive, in comparison with normal behavior.

mice [5] = test: Muscular relaxing effect, Righting Reflex Test (R.r), oral, mice; assay type: in vivo, dd Male mice; conditions: Mus musculus; Table 1; oral; mice; maximum response 15-180 min; Litchfield Wilcoxon
Description: as §1

mice [6] = test: Muscular relaxing effect, Pinna Reflex Test (P.r), oral, mice; assay type: in vivo, dd Male mice; conditions: Mus musculus; Table 1; oral; mice; maximum response 15-180 min; Litchfield Wilcoxon
Description: as §1
Pinna reflex was observed by using mandolin wire for 1/4 injection syringe.

mice [7] = test: Muscular relaxing effect, Corneal Reflex Test (C.r), oral, mice; assay type: in vivo, dd Male mice; conditions: Mus musculus; Table 1; oral; mice; maximum response 15-180 min; Litchfield Wilcoxon
Description: as §1
Corneal reflex was observed by using mandolin wire for 1/4 injection syringe.

[8] = test system: carrageenan-induced edema in rats; test: Antiinflammatory effect on carrageenan-induced edema; assay type: in vivo, Wistar male rats; conditions: Table 5, 200 mg/kg oral
Description: […] One hour after the administration of the test compounds, the hind paw was given a subcutaneous injection of 0.05ml of 0.5% carrageenan saline solution, and volume of the hind paw was measured at 1, 2, 3, 4, 5 and 6 hours after the injection of carrageenan by a volume differential meter. Inhibitory percent was calculated based on the swelling in the control. Phenybutazone was used as active placebo.

Compound	Writhing syndrome (number within 20 minutes) [1]	Inhibitory per cent (writhing) [1] [per cent]	Pain threshold Increase Ratio (pain threshold in mice)	Pain threshold, Mean ± SE, 30 min (pain threshold in mice) [mmHg]	Pain threshold, Mean ± SE, 60 min (pain threshold in mice) [mmHg]	Pain threshold, Mean ± SE, 90 min (pain threshold in mice) [mmHg]	Pain threshold, Mean ± SE, 120 min (pain threshold in mice) [mmHg]	ED50 (mice [2]) [mg/kg]	ED50 (mice [3]) [mg/kg]	ED50 (mice [4]) [mg/kg]	ED50 (mice [5]) [mg/kg]	ED50 (mice [6]) [mg/kg]	ED50 (mice [7]) [mg/kg]	Inhibitory per cent, carrageenan-induced edema, 3 hrs. [8] [per cent]	Inhibitory per cent, carrageenan-induced edema, 6 hrs. [8] [per cent]
Cc1c(N(C)C)c(=O)n(-c2ccccc2)n1C [Aminopyrine, reference compound]	19.3 ± 6.0	62.9	2.20	75.7 ± 5.4	67.3 ± 5.4	70.8 ± 5.3	53.1 ± 4.5								
O=C1NCC(Cc2ccc(Cl)cc2)O1 (stereo not drawn) [Compound V, 5-(p-chlorobenzyl)-2-oxazolidone]	45.5 ± 5.3	12.8	1.15	54.6 ± 4.9	51.3 ± 4.3	48.8 ± 2.7	48.2 ± 1.7	240	380	520	750	530	750	30.6	22.8
O=C1NCC(Cc2ccccc2)O1 (stereo not drawn) [I, 5-benzyl-2-oxazolidone]	42.3 ± 5.9	18.9	1.34	58.2 ± 3.2	57.8 ± 3.2	51.5 ± 2.8	50.7 ± 2.2	460	660	940	1100	800		49.5	13.0
CN1CC(Cc2ccccc2)OC1=O (stereo not drawn) [II, 5-benzyl-3-methyl-2-oxazolidone]	45.9 ± 4.8	11.9	1.36	49.1 ± 4.5	49.2 ± 3.3	43.5 ± 4.7	36.3 ± 3.9	340	500	500	810	520	1100	33.3	19.7
COc1ccccc1CC1CNC(=O)O1 (stereo not drawn) [III, 5-(o-methoxybenzyl)-2-oxazolidone]	39.1 ± 6.4	24.9	1.20	43.7 ± 4.9	46.5 ± 4.2	42.9 ± 3.1	39.2 ± 3.6	175	350	380	500	380	500	32.7	23.3
O=C1NCC(Cc2ccccc2Cl)O1 (stereo not drawn) [IV, 5-(o-chlorobenzyl)-2-oxazolidone]	12.8 ± 3.6	75.4	1.89	69.8 ± 4.5	56.7 ± 5.3	53.3 ± 5.5	51.8 ± 6.2	210	390	330	660	< 500	560	16.8	15.9
